Measurements published in EP1561465A2, “Methods of use of fluoroquinolone compounds against bacteria” (LG Life Sciences, Ltd., priority 1999, dated 2001).
“And” between values parts separate entries of the source, which are not always exact repeats. Identical values can stand only once. Like-named read-outs stand apart in the source and are kept apart here.

Assays:
Assay type in all cases: cell-based
Proteus mirabilis = assay: MIC by agar dilution (NCCLS), 322 nosocomial Gram negative isolates, Athens 1998; conditions: n = 57 isolates
Klebsiella pneumoniae = assay: as above; conditions: n = 56 isolates
Acinetobacter spp. = assay: as above; conditions: n = 38 strains
Pseudomonas aeruginosa = assay: as above; conditions: n = 57 isolates
[1] = system: Gram positive anaerobic and facultative anaerobic pathogens; assay: organism not typed
Enterobacter spp. = assay: MIC by agar dilution (NCCLS), 322 nosocomial Gram negative isolates, Athens 1998; conditions: n = 57 isolates
[2] = system: Gram negative anaerobic pathogens and facultative anaerobic pathogens; assay: MIC by agar dilution, Brucella HK agar with 5% laked sheep blood, anaerobic reference strains
Streptococcus pneumoniae = assay: MIC by two-fold serial agar dilution, Sensitivity Disk agar-N (Kitasato isolates); conditions: Streptococcus pneumoniae; for MIC90: read-out: MIC90; for MIC: read-out: MIC Range; for MIC50: read-out: MIC50
Haemophilus influenzae = assay: as above; conditions: Haemophilus influenzae (24)
Staphylococcus aureus = assay: microbe, parasite or virus in culture; conditions: for MIC50 / MIC90: Staphylococcus aureus; for MIC90: read-out: MIC90
Moraxella catarrhalis = assay: MIC by two-fold serial agar dilution, Sensitivity Disk agar-N (Kitasato isolates); conditions: Moraxella catarrhalis (22)

C[C@@H](O)[C@H]1C(=O)N2C(C(=O)O)=C(SCCN=CN)C[C@H]12 [Imipenem]
0.25 to 64 µg/mL: MIC Range (Enterobacter spp.)
0.06 µg/mL: MIC ([1]; Lactiplantibacillus plantarum, JCM1149) | MIC ([1]; Levilactobacillus brevis, JCM1059) | MIC ([1]; Limosilactobacillus reuteri, JCM1112) | MIC ([1]; Peptostreptococcus anaerobius, ATCC27337) | MIC ([2]; Desullomonas pigra DSM749, read-out: MIC) | MIC ([2]; Prevotella bivia, ATCC29303, Prevotella bivia ATCC29303, read-out: MIC) | MIC ([2]; Segatella oris, ATCC33573, Prevotella oris ATCC33573, read-out: MIC) | MIC ([2]; Veillonella dispar, ATCC17748, Veillonella dispar ATCC17748, read-out: MIC)
0.06 to 16 µg/mL: MIC Range (Acinetobacter spp.)
2 µg/mL: MIC50 (Proteus mirabilis; Proteus mirabilis) | MIC50 (Pseudomonas aeruginosa) | MIC ([1]; Eggerthella lenta, ATCC25559) | MIC90 (Enterobacter spp.; Enterobacter, read-out: MIC90) | MIC ([2]; Bacteroides fragilis, Bacteroides fragilis GAI10150, read-out: MIC) | MIC ([2]; Sutterella wadsworthensis, ATCC51579, Sutterella wadsworthensis ATCC51579, read-out: MIC)
≤ 0.03 µg/mL: MIC ([1]; Clostridium septicum, ATCC12464) | MIC ([1]; Gemella morbillorum, ATCC27824) | MIC ([1]; Limosilactobacillus reuteri, JCM1173) | MIC ([1]; Paraclostridium sordellii, ATCC9714) | MIC ([1]; Peptoniphilus indolicus) | MIC ([1]; Staphylococcus saccharolyticus, ATCC14953) | MIC ([2]; Hoylesella oralis, ATCC33269, Prevotella oralis ATCC33269, read-out: MIC) | MIC ([2]; Porphylomonas gingivalis ATCC33277, read-out: MIC) | MIC ([2]; Porphyromonas asaccharolytica, ATCC25260, Porphyromonas asaccharolytica ATCC25260, read-out: MIC) | MIC ([2]; Prevotella corporis, Prevotella corporis GAI91000, read-out: MIC) | MIC ([2]; Prevotella melaninogenica, Prevotella melaninogenica GAI5490, read-out: MIC)
256 µg/mL: MIC ([2]; Bacteroides fragilis, Bacteroides fragilis GAI30079, read-out: MIC) | MIC ([2]; Bacteroides fragilis, Bacteroides fragilis GAI30144, read-out: MIC)
0.5 µg/mL: MIC ([1]; Lacticaseibacillus casei, JCM1134) | MIC ([1]; Ligilactobacillus salivarius, JCM1231) | MIC ([1]; Schaalia odontolytica) | MIC ([2]; Bacteroides fragilis, ATCC25285, Bacteroides fragilis ATCC25285, read-out: MIC) | MIC ([2]; Bacteroides thetaiotaomicron, ATCC29741, Bacteroides thetaiotaomicron ATCC29741, read-out: MIC) | MIC ([2]; Bacteroides uniformis, ATCC8492, Bacteroides uniformis ATCC8492, read-out: MIC)
0.25 µg/mL: MIC50 (Klebsiella pneumoniae; Klebsiella pneumoniae) | MIC ([1]; Bifidobacterium longum, ATCC15707) | MIC ([1]; Bifidobacterium pseudolongum, ATCC25526) | MIC ([1]; Finegoldia magna, ATCC29328) | MIC ([1]; Streptococcus constellatus, ATCC27823) | MIC ([1]; Streptococcus intermedius, ATCC27335) | MIC ([1]; Thomasclavelia ramosa, ATCC25582) | MIC ([2]; Bacteroides fragilis, Bacteroides fragilis GA15562, read-out: MIC) | MIC ([2]; Bacteroides ovatus, ATCC8483, Bacteroides ovatus ATCC8483, read-out: MIC) | MIC ([2]; Bilophilla wadsworthia WAL7959, read-out: MIC) | MIC ([2]; Campylobacter gracilis, JCM8538, Campylobacter gracilis JCM8538, read-out: MIC) | MIC ([2]; Campylobacter ureolyticus, NCTC10941, Bacteroides ureolyticus NCTC10941, read-out: MIC) | MIC ([2]; Capnocytophaga ochracea, Capnocytophaga ochracea GAI5586, read-out: MIC) | MIC ([2]; Prevotella buccaeATCC33574, read-out: MIC)
0.125 to 16 µg/mL: MIC Range (Proteus mirabilis)
0.125 µg/mL and 0.25 µg/mL: MIC [1]
0.125 µg/mL: MIC ([1]; Bifidobacterium adolescentis, ATCC15703) | MIC ([1]; Bifidobacterium bifidum, JCM1255) | MIC ([1]; Clostridium perfringens, ATCC13124) | MIC ([1]; Cutibacterium acnes, ATCC11828) | MIC ([1]; Lactobacillus acidophilus, JCM1132) | MIC ([1]; Parvimonas micra) | MIC ([1]; Peptoniphilus asaccharolyticus) | MIC ([2]; Bacteroides eggerthii, ATCC27754) | MIC ([2]; Bacteroides fragilis, NCTC10581) | MIC ([2]; Fusobacterium necrophorum, ATCC25286) | MIC ([2]; Prevotella heparinolytica, ATCC35895) | MIC ([2]; Veillonella parvula, ATCC10790)
4 µg/mL: MIC90 (Proteus mirabilis; Proteus mirabilis) | MIC90 (Acinetobacter spp.; Acinetobacter) | MIC ([1]; Clostridioides difficile) | MIC ([2]; Bacteroides fragilis, Bacteroides fragilis GA-I7955, read-out: MIC) | MIC ([2]; Fusobacterium varium, ATCC8501, Fusobacterium varium ATCC8501, read-out: MIC)
0.125 to 4 µg/mL: MIC Range (Klebsiella pneumoniae)
1 µg/mL: MIC90 (Klebsiella pneumoniae; Klebsiella pneumoniae) | MIC50 (Acinetobacter spp.; Acinetobacter) | MIC ([1]; Bifidobacterium breve, ATCC15700) | MIC50 (Enterobacter spp.; Enterobacter, read-out: MIC50) | MIC ([2]; Bacteroides fragilis, Bacteroides fragilis GA-I0558, read-out: MIC) | MIC ([2]; Fusobacterium nucleatum, ATCC25586, Fusobacterium nucleatum ATCC25586, read-out: MIC) | MIC ([2]; Parabacteroides distasonis, ATCC8503, Bacteroides distasonis ATCC8503, read-out: MIC) | MIC ([2]; Phocaeicola vulgatus, ATCC8482, Bacteroides vulgatus ATCC8482, read-out: MIC)
32 µg/mL: MIC90 (Pseudomonas aeruginosa)

CO/N=C(\C(=O)N[C@@H]1C(=O)N2C(C(=O)O)=C(/C=C\c3scnc3C)CS[C@H]12)c1csc(N)n1 [Cefditoren, cefditoren]
32 to 128 µg/mL: MIC Range (Staphylococcus aureus; Methicillin-resistant (38))
0.016 to 0.5 µg/mL: MIC Range (Haemophilus influenzae)
0.063 µg/mL: MIC50 (Streptococcus pneumoniae; Ciprofloxacin-susceptible (94)) | MIC50 (Streptococcus pneumoniae; Erythromycin-resistant (37)) | MIC50 (Streptococcus pneumoniae; Minocycline-resistant (37))
0.25 µg/mL: MIC90 (Streptococcus pneumoniae; 18 h, Ciprofloxacin-resistant (21), ciprofloxacin MIC ≥8 µg/ml) | MIC90 (Streptococcus pneumoniae; Ciprofloxacin-susceptible (94)) | MIC90 (Streptococcus pneumoniae; Erythromycin-resistant (37)) | MIC90 (Streptococcus pneumoniae; Minocycline-resistant (37)) | MIC50 (Streptococcus pneumoniae; Penicillin-resistant (19))
0.063 to 1 µg/mL: MIC Range (Moraxella catarrhalis)
0.008 to 1 µg/mL: MIC (Streptococcus pneumoniae; 18 h, Ciprofloxacin-resistant (21))
0.5 µg/mL: MIC50 (Moraxella catarrhalis)
≤ 0.008 µg/mL: MIC50 (Streptococcus pneumoniae; Ciprofloxacin-resistant (21))
0.5 to 1 µg/mL: MIC Range (Staphylococcus aureus; Methicillin-susceptible (9))
0.008 to 2 µg/mL: MIC (Streptococcus pneumoniae; 18 h, Ciprofloxacin-susceptible (94)) | MIC (Streptococcus pneumoniae; 18 h, Erythromycin-resistant (37)) | MIC (Streptococcus pneumoniae; 18 h, Minocycline-resistant (37))
1 µg/mL: MIC50 (Staphylococcus aureus; Methicillin-susceptible (9)) | MIC90 (Staphylococcus aureus; Methicillin-susceptible (9)) | MIC90 (Moraxella catarrhalis)
0.25 to 2 µg/mL: MIC (Streptococcus pneumoniae; 18 h, Penicillin-resistant (19))
0.031 µg/mL: MIC50 (Haemophilus influenzae) | MIC90 (Haemophilus influenzae)
2 µg/mL: MIC90 (Streptococcus pneumoniae; Penicillin-resistant (19))
128 µg/mL: MIC50 (Staphylococcus aureus; Methicillin-resistant (38)) | MIC90 (Staphylococcus aureus; Methicillin-resistant (38))
